Measurements from patent publication US8791132B2, “Compounds and methods for treatment of hypertension” (Medivation Technologies, Inc., priority 2011, dated 2014).
Several values for one entry are separate records, joined by “and”; a condition that tells them apart may be missing. Identical values can stand only once.

Legend:
[1] = target: T1, human recombinant adrenergic α2A receptor (Homo sapiens, UniProt P08913); experiment: Radioligand binding, adrenergic α2A ([3H]MK-912); conditions: for Percentage inhibition of ligand binding, Adrenergic α2A / inhibition at 0.1 µM: repeat assays, each datapoint shown; for inhibition at 0.1 µM: read-out: Percentage inhibition of ligand binding, Adrenergic α2A
T1 construct: expressed in transfected cells; host or cells: insect Sf9 cells
T1 sequence (P08913 1-465): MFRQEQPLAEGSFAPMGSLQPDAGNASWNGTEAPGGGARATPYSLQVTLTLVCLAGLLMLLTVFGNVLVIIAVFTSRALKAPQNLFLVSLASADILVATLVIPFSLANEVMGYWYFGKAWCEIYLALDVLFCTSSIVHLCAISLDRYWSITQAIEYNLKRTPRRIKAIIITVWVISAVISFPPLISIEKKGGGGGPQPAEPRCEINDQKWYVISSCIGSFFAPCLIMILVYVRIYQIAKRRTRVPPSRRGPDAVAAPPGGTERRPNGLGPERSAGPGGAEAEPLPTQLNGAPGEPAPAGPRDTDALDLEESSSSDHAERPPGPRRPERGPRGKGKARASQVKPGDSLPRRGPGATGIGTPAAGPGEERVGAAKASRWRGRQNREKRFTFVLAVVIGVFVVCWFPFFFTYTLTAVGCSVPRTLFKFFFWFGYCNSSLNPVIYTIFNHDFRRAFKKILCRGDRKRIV
Method: To evaluate in radioligand binding assays the activity of compounds of the invention, human recombinant adrenergic α2A receptor expressed in insect Sf9 cells (Uhlen, S. et al, J. Pharmacol. Exp. Ther. 271:1558, 1994) in a modified Tris-HCl buffer (50 mM Tris-HCl, pH 7.4, 12.5 mM MgCl2, 2 mM EDTA) was used. Compounds of invention were incubated with 1 nM [^3H]MK-912 for 60 min at 25° C. MK912 is (2S-trans)-1,3,4,5′,6,6′,7,12b-octahydro-1′,3′-dimethyl-spiro[2H-benzofuro[2,3-a]quinolizine-2,4′(1′H)-pyrimidin]-2′(3′H)-one hydrochloride. Non-specific binding was estimated in the presence of 10 μM WB-4101 (2-(2,6-Dimethoxyphenoxyethyl)aminomethyl-1,4-benzodioxane hydrochloride). Receptor proteins were filtered and washed, the filters were then counted to determine [^3H]MK-912 specifically bound. […] Compounds of the invention were tested in this biochemical assay and percent inhibition of specific binding was determined. Biochemical assay results are presented as the percent inhibition of specific binding in Table B1.

[2] = target: T2, human recombinant adrenergic α2B receptor (Homo sapiens, UniProt P18089); experiment: Radioligand binding, adrenergic α2B ([3H]Rauwolscine); conditions: for Ki: read-out: Ki α2B
T2 construct: expressed in transfected cells; host or cells: CHO-K1
T2 sequence (P18089 1-450): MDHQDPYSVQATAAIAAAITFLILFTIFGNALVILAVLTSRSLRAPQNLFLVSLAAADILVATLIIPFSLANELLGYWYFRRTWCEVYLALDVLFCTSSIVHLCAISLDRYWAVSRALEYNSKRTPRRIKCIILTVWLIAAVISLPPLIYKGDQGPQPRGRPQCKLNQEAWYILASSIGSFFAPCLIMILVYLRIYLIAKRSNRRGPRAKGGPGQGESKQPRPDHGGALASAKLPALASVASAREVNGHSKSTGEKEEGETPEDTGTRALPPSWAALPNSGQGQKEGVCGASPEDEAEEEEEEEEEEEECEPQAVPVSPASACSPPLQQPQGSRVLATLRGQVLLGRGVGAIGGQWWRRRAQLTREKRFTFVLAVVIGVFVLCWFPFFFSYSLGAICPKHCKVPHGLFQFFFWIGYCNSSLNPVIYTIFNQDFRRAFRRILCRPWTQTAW
Method: To evaluate in radioligand binding assays the activity of compounds of the invention, human recombinant adrenergic α2B receptor expressed in Chinese hamster ovary (CHO) K1 cells (Uhlen, S. et al, Eur. J. Pharmacol. 343(1):93, 1998) in a modified Tris-HCl buffer (50 mM Tris-HCl, pH 7.4, 12.5 mM MgCl2, 1 mM EDTA, 0.2% BSA) was used. Compounds of the invention were incubated with 2.5 nM [3H]Rauwolscine for 60 min at 25° C. Non-specific binding was estimated in the presence of 10 μM Prazosin. Receptor proteins were filtered and washed, the filters were then counted to determine [3H]Rauwolscine specifically bound. […] Compounds of the invention were tested in this biochemical assay and percent inhibition of specific binding was determined. Biochemical assay results are presented as the percent inhibition of specific binding in Table B1.

[3] = target: T3, rat adrenergic α1B receptor (Rattus norvegicus, UniProt P15823); experiment: Radioligand binding, adrenergic α1B ([3H]Prazosin); conditions: [3H]Prazosin; for Percentage inhibition of ligand binding, Adrenergic α1B / inhibition at 0.03 µM / inhibition at 0.1 µM: repeat assays, each datapoint shown; for inhibition at 0.03 µM: compound at 0.03 μM; for inhibition at 0.03 µM / inhibition at 0.1 µM: read-out: Percentage inhibition of ligand binding, Adrenergic α1B
T3 construct: rat adrenergic α1B receptor obtained from Wistar Rat liver; from tissue; host or cells: Wistar rat liver
T3 sequence (P15823 1-515): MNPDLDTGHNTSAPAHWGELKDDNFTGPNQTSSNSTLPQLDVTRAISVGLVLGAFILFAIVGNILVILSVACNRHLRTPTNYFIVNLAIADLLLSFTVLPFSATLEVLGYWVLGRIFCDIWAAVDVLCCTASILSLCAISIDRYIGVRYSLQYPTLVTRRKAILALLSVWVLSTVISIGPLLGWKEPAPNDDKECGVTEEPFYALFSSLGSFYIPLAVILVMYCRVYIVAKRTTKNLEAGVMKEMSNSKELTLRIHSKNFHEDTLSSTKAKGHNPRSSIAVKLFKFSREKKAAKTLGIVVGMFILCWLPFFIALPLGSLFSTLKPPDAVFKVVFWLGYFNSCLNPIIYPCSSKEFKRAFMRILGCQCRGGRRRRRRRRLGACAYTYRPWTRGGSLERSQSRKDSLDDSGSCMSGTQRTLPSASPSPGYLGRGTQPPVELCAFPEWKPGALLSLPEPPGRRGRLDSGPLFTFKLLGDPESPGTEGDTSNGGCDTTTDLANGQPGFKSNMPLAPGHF
Method: To evaluate in radioligand binding assays the activity of compounds of the invention, rat adrenergic α1B receptor obtained from Wistar Rat liver (Garcia-S'ainz, J. et al, Biochem. Biophys. Res. Commun. 186:760, 1992; Michel, A. et al, Br. J. Pharmacol. 98:883, 1989) in a modified Tris-HCl buffer (50 mM Tris-HCl buffer, pH 7.4, 0.5 mM EDTA) was used. Compounds of the invention were incubated with 0.25 nM [^3H]Prazosin for 60 min at 25° C. Non-specific binding was estimated in the presence of 10 μM phentolamine. Receptor proteins were filtered and washed, the filters were then counted to determine [^3H]Prazosin specifically bound. […] Compounds of the invention were tested in this biochemical assay and percent inhibition of specific binding was determined. Biochemical assay results are presented as the percent inhibition of specific binding in Table B1.

[4] = compound at 0.1 μM, [3H]MK-912, 0.1 µM
[5] = compound at 0.03 μM, [3H]Rauwolscine, repeat assays, each datapoint shown, 0.03 µM
[6] = compound at 0.1 μM, [3H]Rauwolscine, repeat assays, each datapoint shown, read-out: Percentage inhibition of ligand binding, Adrenergic α2B

| Compound | Percentage inhibition of ligand binding, Adrenergic α2A [1, 4] | Percentage inhibition of ligand binding, Adrenergic α2B [2, 5] | Percentage inhibition of ligand binding, Adrenergic α1B ([3]; compound at 0.1 μM, 0.1 µM) | further results |
| --- | --- | --- | --- | --- |
| Cc1ccc2c(c1)c1c(n2CC(O)c2ccncc2)CC2CCCCN2C1 (racemic) [75a] | 11% | 77% | 61% |  |
| Cc1ccc2c(c1)c1c(n2CC(O)c2ccncc2)CC2CCCCN2C1 (racemic) [75b] | 5% | 43% | 16% |  |
| Cc1ccc2c(c1)c1c(n2CC(O)c2ccncc2)CC2CCCCN2C1 (racemic) [75c] | −2% | 11% | 59% |  |
| Cc1ccc2c(c1)c1c(n2CC(O)c2ccncc2)CC2CCCCN2C1 (racemic) [75d] | 49% | 102% | 26% |  |
| Cc1ccc2c(c1)c1c(n2CC(N=[N+]=[N-])c2ccncc2)CCN(C)C1 (racemic) [V-1b, 5-(2-azido-2-(pyridin-4-yl)ethyl)-2,3,4,5-tetrahydro-2,8-dimethyl-1H-pyrido[4,3-b]indole] |  |  |  | Percentage inhibition of ligand binding, Adrenergic α2A (0.1 μM) ([1]; compound at 0.1 μM, [3H]MK-912, repeat datapoints each shown, 0.1 µM): 29%; Percentage inhibition of ligand binding, Adrenergic α2B (0.03 μM) ([2]; compound at 0.03 μM, [3H]Rauwolscine, repeat datapoints each shown, 0.03 µM): 102%; Percentage inhibition of ligand binding, Adrenergic α1B (0.1 μM) ([3]; compound at 0.1 μM, repeat datapoints each shown, 0.1 µM): 57% |
| Cc1ccc2c(c1)c1c(n2CC(O)c2ccncc2)CCN(C)C1 (single isomer, unassigned) [3a] |  | 26% and 30% |  | inhibition at 0.1 µM ([1]; compound at 0.1 μM, [3H]MK-912): 16%; inhibition at 0.1 µM [2, 6]: 62%; Ki [2]: 27.4 nM; inhibition at 0.03 µM [3]: 18% |
| CN1CCc2c(c3cc(Cl)ccc3n2CC(O)c2ccncc2)C1 (single isomer, unassigned) [4b] | 7% | 46% | 58% |  |
| Cc1ccc2c(c1)c1c(n2CC(C)(O)c2cccnc2)CCN(C)C1 (single isomer, unassigned) [5a, 1-(1,2,3,4-tetrahydro-2,8-dimethylpyrido[4,3-b]indol-5-yl)-2-(pyridin-3-yl)propan-2-ol] | 0% | 29% and 38% |  | Percentage inhibition of ligand binding, Adrenergic α2B ([2]; compound at 0.1 μM, [3H]Rauwolscine, repeat assays, each datapoint shown, 0.1 µM): 57%; Ki [2]: 35 nM; inhibition at 0.1 µM ([3]; compound at 0.1 μM): 18% |
| CN1CCc2c(c3cc(Cl)ccc3n2CC(O)c2cccnc2)C1 (single isomer, unassigned) [7a] | 1% | 59% | 28% |  |
| CN1CCc2c(c3cc(Cl)ccc3n2CC(O)c2cccnc2)C1 (single isomer, unassigned) [7b] | 25% | 74% | 37% |  |
| Cc1ccc2c(c1)c1c(n2CC(O)c2ccncc2)CN(C)CC1 (single isomer, unassigned) [8b] | 12% |  | 63% | Ki [1]: 2100 nM; inhibition at 0.1 µM ([1]; compound at 0.1 μM, [3H]MK-912): 8%; inhibition at 0.03 µM ([2]; compound at 0.03 μM, [3H]Rauwolscine, repeat assays, each datapoint shown, read-out: Percentage inhibition of ligand binding, Adrenergic α2B): 49%; inhibition at 0.1 µM [2, 6]: 78%; Ki [2]: 11.7 nM; inhibition at 0.03 µM [3]: 24%; inhibition at 0.1 µM ([3]; compound at 0.1 μM): 61% |
| Cc1ccc2c(c1)c1c(n2CC(O)c2cccnc2)CCNC1 (single isomer, unassigned) [9a, 2-(8-methyl-1,2,3,4-tetrahydro-pyrido[4,3-b]indol-5-yl)-1-pyridin-3-yl-ethanol] | 4% | 23% | 11% |  |
| Cc1ccc2c(c1)c1c(n2CC(O)c2cccnc2)CCNC1 (single isomer, unassigned) [9b, 2-(8-methyl-1,2,3,4-tetrahydro-pyrido[4,3-b]indol-5-yl)-1-pyridin-3-yl-ethanol] | 10% | 50% | 10% |  |
| OC(Cn1c2c(c3cc(Cl)ccc31)CNCC2)c1ccncc1 (single isomer, unassigned) [10a, 2-(8-chloro-1,2,3,4-tetrahydro-pyrido[4,3-b]indol-5-yl)-1-pyridin-4-yl-ethanol] |  | 34% |  | inhibition at 0.1 µM ([1]; compound at 0.1 μM, [3H]MK-912): 8%; inhibition at 0.1 µM ([3]; compound at 0.1 μM): 30% |
| OC(Cn1c2c(c3cc(Cl)ccc31)CNCC2)c1ccncc1 (single isomer, unassigned) [10b, 2-(8-chloro-1,2,3,4-tetrahydro-pyrido[4,3-b]indol-5-yl)-1-pyridin-4-yl-ethanol] | 15% | 91% | 28% |  |
| Cc1ccc2c(c1)c1c(n2CC(O)c2ccncc2)CN(C)CC1 (stereo not drawn) [compound 8] |  |  |  | inhibition at 0.1 µM ([1]; compound at 0.1 μM, [3H]MK-912): 23%; inhibition at 0.1 µM ([3]; compound at 0.1 μM): 58% |
